The values below come from patent US9012441B2, “Therapeutic compounds” (Gilead Sciences, Inc., priority 2013, dated 2015).

Broadly, the inhibition is the change of the read-out against control, counted positive when it falls. As usually defined, the CC50 is the concentration that lowers cell viability or growth by half.

One series relates to HIV-IIIb. Put plainly: Test A: Antiviral Assay in MT4 Cells. It is filed as cell-based, HIV-1. The settings on record: Human immunodeficiency virus 1, MT4, 120 h, read-out: % Inh @ 2 uM (percent inhibition of virus-induced cell killing); 2 uM test compound; MT-4 cells infected with HIV-IIIb, 5 days, CellTiter-Glo. The method, then: (§1) Test A: Antiviral Assay in MT4 Cells For the antiviral assay, 40 μL of 1× test concentration of 3-fold serially diluted compound in culture medium with 10% FBS was added to each well of a 384-well plate (10 concentrations) in quadruplicate. MT-4 cells were next mixed with HIV-IIIb at an m.o.i of 0.003 for 1 hour, after which time 35 μL of virus/cell mixture (2000 cells) was immediately added to each well containing 40 μL of diluted compound. The plates were then incubated at 37° C. for 5 days. After 5 days of incubation, 25 μl of 2× concentrated CellTiter-Glo™ Reagent (catalog #G7571, Promega Biosciences, Inc., Madison, Wis.) was added to each well containing MT-4 cells. Cell lysis was carried out by incubating at room temperature for 10 min and then chemiluminescence was read. […] Accordingly, the compounds disclosed herein may be useful for treating an HIV virus infection, treating AIDS or for delaying the onset of AIDS or ARC symptoms.
Background: In ATP-based viability assays light output follows the ATP content of the culture.

A short description of series [1]: Test B: Cytotoxicity Assay (uninfected MT-4 cells). The settings on record: human, same protocol as Test A, read-out: MT4-CC50. It is filed as cell-based. The method, then: as §1, with “For” for “Test A: Antiviral Assay in MT4 Cells For”, “Test B: Cytotoxicity Assay Compound cytotoxicity and” for “Accordingly,”, “corresponding CC50 values were determined using” for “compounds disclosed herein may be useful for treating an HIV virus infection, treating AIDS or for delaying”, “same protocol as described in the antiviral assay (Test A) except that uninfected cells were used.” for “onset of AIDS or ARC symptoms.”

Take `COc1ccc(N(C)C(=O)[C@@H]2Cc3cccc(c3)CS(=O)(=O)c3[nH]c4ccccc4c3CC(=O)N2)cc1` [Example 21, (9S)—N-(4-methoxyphenyl)-N-methyl-11-oxo-8,9,10,11,12,17-hexahydro-7,3-(metheno)[1,6]thiazacyclotetradecino[2,3-b]indole-9(2H)-carboxamide 1,1-dioxide]: the inhibition at 2 µM with HIV-IIIb stood at 11.8%. For the same compound, the CC50 at 5 days in series [1] is > 53 µM.

On to `CN(C(=O)[C@@H]1Cc2cc(F)cc(c2)CCCc2[nH]c3ccccc3c2CC(=O)N1)c1ccc(Cl)cc1` [Example 24, (4S)—N-(4-chlorophenyl)-8-fluoro-N-methyl-2-oxo-2,3,4,5,11,12,13,14-octahydro-1H-6,10-(metheno)azacyclopentadecino[5,4-b]indole-4-carboxamide], for which the inhibition at 2 µM in the series on HIV-IIIb is 100%. Besides, the CC50 at 5 days in series [1] stood at 47.1 µM.

With `CN(C(=O)[C@@H]1Cc2cccc(c2)CCc2[nH]c3ccc(=O)[nH]c3c2CC(=O)N1)c1ccc(Cl)cc1` [Example 29, (14S)—N-(4-chlorophenyl)-N-methyl-2,16-dioxo-1,2,5,6,7,13,14,15,16,17-decahydro-12,8-(metheno)pyrido[2′,3′:4,5]pyrrolo[3,2-d]azacyclotetradecine-14-carboxamide], the inhibition at 2 µM in the series with HIV-IIIb came to 87.6%. Moreover, in series [1], the CC50 at 5 days is > 53 µM.

In the case of `COc1ccc(N(C)C(=O)[C@@H]2Cc3cccc(c3)CCCCc3[nH]c4ccccc4c3CC(=O)N2)cc1` [Example 4], the inhibition at 2 µM with HIV-IIIb stood at 79.6%. The CC50 at 5 days in series [1] was > 48.7 µM.

As for `CN(C(=O)N1Cc2cc(F)cc(c2)CCCc2[nH]c3ccccc3c2CC(=O)N1)c1ccc(Cl)cc1` [Example 31, N-(4-chlorophenyl)-8-fluoro-N-methyl-2-oxo-2,3,11,12,13,14-hexahydro-1H-6,10-(metheno)[1,2]diazacyclopentadecino[6,5-b]indole-4(5H)-carboxamide], in the series on HIV-IIIb, the inhibition at 2 µM is 2.4%. The CC50 at 5 days in series [1] is 21.7 µM.

Consider `COc1ccc(N(C)C(=O)[C@@H]2Cc3cccc(c3)C/C=C/c3[nH]c4ccc(F)cc4c3CC(=O)N2)cc1` [Example 12], for which the inhibition at 2 µM with HIV-IIIb was 85.5%. The CC50 at 5 days in series [1] turned out to be 31.8 µM.

`COc1ccc(N(C)C(=O)[C@@H]2Cc3cccc(c3)CC=Cc3[nH]c4ccccc4c3CC(=O)N2)cc1` (stereo in doubt) [Example 11, (4S,12Z)—N-(4-methoxyphenyl)-N-methyl-2-oxo-2,3,4,5,11,14-hexahydro-1H-6,10-(metheno)azacyclopentadecino[5,4-b]indole-4-carboxamide]: in the series on HIV-IIIb, the inhibition at 2 µM came out at 102%. In series [1], the CC50 at 5 days is 23.9 µM.

In the case of `COc1ccc(N(C)C(=O)[C@@H]2Cc3cccc(c3)S(=O)(=O)Cc3[nH]c4ccccc4c3CC(=O)N2)cc1` [Example 19, (9S)—N-(4-methoxyphenyl)-N-methyl-11-oxo-8,9,10,11,12,17-hexahydro-1H-7,3-(metheno)[1,7]thiazacyclotetradecino[3,4-b]indole-9-carboxamide 2,2-dioxide], in the series with HIV-IIIb, the inhibition at 2 µM turned out to be 80.3%. In series [1], the CC50 at 5 days was > 53 µM.

Consider `COc1ccc(N(C)C(=O)[C@@H]2Cc3cccc(c3)CCSCc3[nH]c4ccc(O)cc4c3CC(=O)N2)cc1` [Example 6], for which the inhibition at 2 µM in the series with HIV-IIIb came to 94.3%. Besides, in series [1], the cytotoxic concentration (CC50) at 5 days is 49.2 µM.

`COc1ccc(N(C)C(=O)[C@@H]2Cc3cccc(c3)C/C=C\c3[nH]c4ccccc4c3CC(=O)N2)cc1` [Example 13]: the inhibition at 2 µM in the series on HIV-IIIb was determined as 99%. The CC50 at 5 days in series [1] was > 53 µM.

Turning to `COc1ccc(N(C)C(=O)[C@@H]2Cc3cccc(c3)CCSCc3[nH]c4ccc(F)cc4c3CC(=O)N2)cc1` [Example 7], the inhibition at 2 µM in the series with HIV-IIIb was found to be 26.3%. For the same compound, the CC50 at 5 days in series [1] is > 53 µM.

In the case of `COc1ccc(N(C)C(=O)[C@@H]2Cc3cccc(c3)C/C=C\c3[nH]c4ccc(F)cc4c3CC(=O)N2)cc1` [Example 14], in the series on HIV-IIIb, the inhibition at 2 µM was found to be 95.6%. Moreover, in series [1], the CC50 at 5 days amounted to 44.3 µM.

For the compound `COc1ccc2[nH]c3c(c2n1)CC(=O)N[C@H](C(=O)N(C)c1ccc(Cl)cc1)Cc1cccc(c1)CC3` [Example 28, (14S)—N-(4-chlorophenyl)-2-methoxy-N-methyl-16-oxo-5,6,7,13,14,15,16,17-octahydro-12,8-(metheno)pyrido[2′,3′:4,5]pyrrolo[3,2-d]azacyclotetradecine-14-carboxamide], the inhibition at 2 µM in the series with HIV-IIIb came to 63.9%. Moreover, the CC50 at 5 days in series [1] was 18.3 µM.

For the compound `COc1ccc(N(C)C(=O)[C@@H]2Cc3cccc(c3)CCS(=O)(=O)Cc3[nH]c4ccc(O)cc4c3CC(=O)N2)cc1` [Example 9], in the series with HIV-IIIb, the inhibition at 2 µM came to 0.7%. Besides, the half-maximal cytotoxic concentration (CC50) at 5 days in series [1] is > 53 µM.

Regarding `COc1ccc(N(C)C(=O)[C@@H]2Cc3cccc(c3)CCS(=O)(=O)Cc3[nH]c4ccccc4c3CC(=O)N2)cc1` [Example 8, (11S)—N-(4-methoxyphenyl)-N-methyl-13-oxo-3,4,10,11,12,13,14,19-octahydro-1H-9,5-(metheno)[1,7]thiazacyclohexadecino[3,4-b]indole-11-carboxamide 2,2-dioxide], the inhibition at 2 µM in the series with HIV-IIIb is 0.6%. For the same compound, the CC50 at 5 days in series [1] was > 53 µM.

With `COc1ccc(N(C)C(=O)[C@@H]2Cc3cc(F)cc(c3)/C=C\Cc3[nH]c4ccccc4c3CC(=O)N2)cc1` [Example 26, (4S,11Z)-8-fluoro-N-(4-methoxyphenyl)-N-methyl-2-oxo-2,3,4,5,13,14-hexahydro-1H-6,10-(metheno)azacyclopentadecino[5,4-b]indole-4-carboxamide], the inhibition at 2 µM with HIV-IIIb worked out at 79.9%. Besides, in series [1], the CC50 at 5 days came to 34.8 µM.

Take `COc1ccc(N(C)C(=O)[C@@H]2Cc3cccc(c3)CCCc3[nH]c4ccc(O)cc4c3CC(=O)N2)cc1` [Example 2]: in the series with HIV-IIIb, the inhibition at 2 µM came to 102%. Further, the half-maximal cytotoxic concentration (CC50) at 5 days in series [1] is > 46.4 µM.

Take `COc1ccc(N(C)C(=O)[C@@H]2Cc3cc(F)cc(c3)C/C=C/c3[nH]c4ccccc4c3CC(=O)N2)cc1` [Example 27, (4S,12E)-8-fluoro-N-(4-methoxyphenyl)-N-methyl-2-oxo-2,3,4,5,11,14-hexahydro-1H-6,10-(metheno)azacyclopentadecino[5,4-b]indole-4-carboxamide]: the inhibition at 2 µM with HIV-IIIb was found to be 92.5%. In series [1], the CC50 at 5 days amounted to 18.9 µM.

In the case of `CN(Cc1ccccc1)C(=O)[C@@H]1Cc2cc(F)cc(c2)CCCc2[nH]c3ccccc3c2CC(=O)N1` [Example 25, (4S)—N-benzyl-8-fluoro-N-methyl-2-oxo-2,3,4,5,11,12,13,14-octahydro-1H-6,10-(metheno)azacyclopentadecino[5,4-b]indole-4-carboxamide], in the series with HIV-IIIb, the inhibition at 2 µM is 84.9%. Further, the CC50 at 5 days in series [1] is 52.3 µM.

On to `CN(C(=O)[C@@H]1Cc2cccc(c2)CCCc2[nH]c3ccc(=O)[nH]c3c2CC(=O)N1)c1ccc(Cl)cc1` [Example 30, (15S)—N-(4-chlorophenyl)-N-methyl-2,17-dioxo-1,5,6,7,8,14,15,16,17,18-decahydro-2H-13,9-(metheno)pyrido[2′,3′:4,5]pyrrolo[3,2-d]azacyclopentadecine-15-carboxamide], for which, in the series on HIV-IIIb, the inhibition at 2 µM is 0%. In series [1], the CC50 at 5 days was 24.4 µM.

Consider `COc1ccc(N(C)C(=O)[C@@H]2Cc3cccc(c3)/C=C\c3[nH]c4ccccc4c3CC(=O)N2)cc1` [Example 17, (4S,11Z)—N-(4-methoxyphenyl)-N-methyl-2-oxo-1,2,3,4,5,13-hexahydro-6,10-(metheno)azacyclotetradecino[5,4-b]indole-4-carboxamide], for which, in the series on HIV-IIIb, the inhibition at 2 µM is 4.7%. Further, the CC50 at 5 days in series [1] was > 53 µM.

Regarding `COc1ccc(N(C)C(=O)[C@@H]2Cc3cccc(c3)CCc3[nH]c4ccccc4c3CC(=O)N2)cc1` [Example 3], in the series with HIV-IIIb, the inhibition at 2 µM was found to be 99.2%. Also, in series [1], the 50% cytotoxic concentration (CC50) at 5 days is > 53 µM.

Turning to `COc1ccc(N(C)C(=O)[C@@H]2Cc3cc(F)cc(c3)CCCc3[nH]c4ccccc4c3CC(=O)N2)cc1` [Example 23K, (4S)-8-fluoro-N-(4-methoxyphenyl)-N-methyl-2-oxo-2,3,4,5,11,12,13,14-octahydro-1H-6,10-(metheno)azacyclopentadecino[5,4-b]indole-4-carboxamide], in the series on HIV-IIIb, the inhibition at 2 µM is 94%. Also, the CC50 at 5 days in series [1] is > 50.3 µM.

As for `COc1ccc(N(C)C(=O)[C@@H]2Cc3cccc(c3)CS(=O)(=O)Cc3[nH]c4ccccc4c3CC(=O)N2)cc1` [Example 16, (10S)—N-(4-methoxyphenyl)-N-methyl-12-oxo-9,10,11,12,13,18-hexahydro-1H-8,4-(metheno)[1,7]thiazacyclopentadecino[3,4-b]indole-10(3H)-carboxamide 2,2-dioxide], the inhibition at 2 µM in the series on HIV-IIIb was 67.8%. Besides, the CC50 at 5 days in series [1] was > 53 µM.
